Earlier results on 1 substance are cited in patent US20250339362A1, “SKINCARE SUPPLEMENTS” (Natals, Inc., priority 2024, published 2025).

The test system of the data set is male and female subjects ages 35-64 years. The note with it: 120 mg HA capsule orally once per day, Visioscan.

Like-named read-outs stand apart in the source and are kept apart here.

Regarding hyaluronic acid [HA], the “facial skin smoothness: Statistical significance compared to placebo” value (Week 8) is on record as “No” and the “facial skin smoothness: Statistical significance compared to placebo” value (Week 12) is on record as “statistically significant reduction in smoothness”.
